Measured values taken from patent US4604239A, “Antibiotics” (Eli Lilly and Company, priority 1985, dated 1986).
Converted amounts (≈) assume the structure as drawn. Read-outs that look alike come from different tables or passages of the source.

Assays:
Staphylococcus aureus = test: agar-dilution MIC; assay type: cell-based
Hemophilus influenzae = test: agar-dilution MIC; assay type: cell-based
Bacteroides corrodens = test: agar-dilution MIC; assay type: cell-based; details: Bacteroides corrodens 1874; Table 14
[1] = test system: Bacteroides thetaiotaomicron; assay type: cell-based
Source text: The agar-dilution procedure described by the International Collaborative study (ICS) group was used to determine the minimum inhibitory concentrations (MIC's).

[2] = test system: Fusobacterium necrophorum; test: agar-dilution MIC; assay type: cell-based; details: Fusobacterium necrophorum 6054A; Table 14
Fusobacterium symbiosum = test: agar-dilution MIC; assay type: cell-based; details: Fusobacterium symbiosum 1470; Table 14
Staph. aureus = test: experimental bacterial infection in mice; assay type: in vivo; details: two doses subcutaneously
Procedure: All of the A41030 factors tested have shown in vivo antimicrobial activity against experimental bacterial infections. When two doses of test compound were administered subcutaneously to mice in illustrative infections, the activity observed is measured as an ED50 value [effective dose in mg./kg. to protect fifty percent of the test animals: See Warren Wick, et al., J. Bacteriol. 81, 233-235 (1961)].

Peptococcus prevoti [3] = test: agar-dilution MIC; assay type: cell-based
solubility = assay type: physicochemical
Clostridium perfringens = assay type: cell-based; details: Clostridium perfringens 81; Table 14
Peptococcus magnus = test: agar-dilution MIC; assay type: cell-based; details: Pc. magnus 1477; Table 15
Procedure: (§1) The MIC values were determined by the agar-dilution method, and are recorded in Table 15, which follows.

Peptococcus constellatus = test: agar-dilution MIC; assay type: cell-based; details: Pc. constellatus 1468; Table 15
Procedure: as §1

Peptococcus prevoti [4] = test: agar-dilution MIC; assay type: cell-based; details: Table 15
Procedure: as §1

[5] = test system: Peptococcus asaccharolyticus; test: agar-dilution MIC; assay type: cell-based; details: Table 15
Procedure: as §1

[6] = test system: Bacteroides melaninogenicus; test: agar-dilution MIC; assay type: cell-based; details: Bacteroides melaninogenicus 2736; Table 14
Clostridium difficile = assay type: cell-based

NC1C(=O)NC2Cc3ccc(c(Cl)c3)Oc3cc4cc(c3O)Oc3ccc(cc3Cl)C(O)C3NC(=O)C(NC(=O)C4NC(=O)C(NC2=O)c2cc(O)cc(c2)Oc2cc1ccc2O)c1cc(Cl)c(O)c(c1)-c1c(O)cc(O)cc1C(C(=O)O)NC3=O (centres unmarked) [A41030 factor A]
MIC (Staphylococcus aureus; Staphylococcus aureus 3055, Table 11): 0.13 µg/mL (≈ 0.105 µM)
MIC (Staphylococcus aureus; Staphylococcus aureus 3055, end point after 24 hours, Table 18): 0.06 µg/mL (≈ 0.0486 µM)
MIC (Staphylococcus aureus; Staphylococcus aureus 3074, Penicillin-resistant, Table 11): ≤ 0.06 µg/mL
MIC (Staphylococcus aureus; Staphylococcus aureus 3131 (**Penicillin, methicillin, and erythromycin), Table 11): ≤ 0.06 µg/mL
MIC (Staphylococcus aureus; Staphylococcus aureus 3134 (**Penicillin, methicillin, and erythromycin), Table 11): ≤ 0.06 µg/mL
MIC (Staphylococcus aureus; Staphylococcus aureus H43, Penicillin-resistant, Table 11): ≤ 0.06 µg/mL
MIC (Staphylococcus aureus; Staphylococcus aureus H290, Table 11): ≤ 0.06 µg/mL
MIC (Staphylococcus aureus; Staphylococcus aureus S13E, Table 17): 0.25 µg/mL (≈ 0.203 µM)
MIC (Staphylococcus aureus; Staphylococcus aureus V57, Penicillin-resistant, Table 11): ≤ 0.06 µg/mL
MIC (Staphylococcus aureus; Staphylococcus aureus V138, end point after 24 hours, Table 18): 0.06 µg/mL (≈ 0.0486 µM)
MIC (Hemophilus influenzae; Haemophilus influenzae 76, end point after 24 hours, Table 18): 4 µg/mL (≈ 3.24 µM)
MIC (Hemophilus influenzae; Haemophilus influenzae 251, Table 17): 2 µg/mL (≈ 1.62 µM)
MIC (Hemophilus influenzae; Haemophilus influenzae 312, end point after 24 hours, Table 18): 2 µg/mL (≈ 1.62 µM)
MIC (Hemophilus influenzae; Haemophilus influenzae 4842, end point after 24 hours, Table 18): 2 µg/mL (≈ 1.62 µM)
MIC (Hemophilus influenzae; Haemophilus influenzae 16836, end point after 24 hours, Table 18): 4 µg/mL (≈ 3.24 µM)
MIC (Hemophilus influenzae; Haemophilus influenzae Bond, end point after 24 hours, Table 18): 2 µg/mL (≈ 1.62 µM)
MIC (Hemophilus influenzae; Haemophilus influenzae Brun, Table 17): 8 µg/mL (≈ 6.49 µM)
MIC (Hemophilus influenzae; Haemophilus influenzae C.L., end point after 24 hours, Table 18): 4 µg/mL (≈ 3.24 µM)
MIC (Hemophilus influenzae; Haemophilus influenzae Mx366, end point after 24 hours, Table 18): 2 µg/mL (≈ 1.62 µM)
MIC (Hemophilus influenzae; Haemophilus influenzae Mx371, end point after 24 hours, Table 18): 2 µg/mL (≈ 1.62 µM)
MIC (Hemophilus influenzae; Hemophilus influenzae 75-312, Table 9): 8 µg/mL (≈ 6.49 µM)
MIC (Hemophilus influenzae; Hemophilus influenzae 75-313, Table 9): 16 µg/mL (≈ 13 µM)
MIC (Hemophilus influenzae; Hemophilus influenzae 75-364, Table 9): 16 µg/mL (≈ 13 µM)
MIC (Hemophilus influenzae; Hemophilus influenzae 75-465, Table 9): 32 µg/mL (≈ 25.9 µM)
MIC (Hemophilus influenzae; Hemophilus influenzae 75-19300, Table 9): 16 µg/mL (≈ 13 µM)
MIC (Hemophilus influenzae; Hemophilus influenzae 75-90383, Table 9): 16 µg/mL (≈ 13 µM)
MIC (Hemophilus influenzae; Hemophilus influenzae 4842, Table 9): 8 µg/mL (≈ 6.49 µM)
MIC (Hemophilus influenzae; Hemophilus influenzae A. Hall, Table 9): 16 µg/mL (≈ 13 µM)
MIC (Hemophilus influenzae; Hemophilus influenzae Bruno, Table 9): 16 µg/mL (≈ 13 µM)
MIC (Hemophilus influenzae; Hemophilus influenzae C. Steele, Table 9): 16 µg/mL (≈ 13 µM)
MIC (Hemophilus influenzae; Hemophilus influenzae G. Newton, Table 9): 32 µg/mL (≈ 25.9 µM)
MIC (Hemophilus influenzae; Hemophilus influenzae Howard, Table 9): 16 µg/mL (≈ 13 µM)
MIC (Hemophilus influenzae; Hemophilus influenzae Miller, Table 9): 16 µg/mL (≈ 13 µM)
MIC (Hemophilus influenzae; Hemophilus influenzae P. Wylie, Table 9): 16 µg/mL (≈ 13 µM)
MIC (Hemophilus influenzae; Hemophilus influenzae R251, Table 9): 16 µg/mL (≈ 13 µM)
MIC (Hemophilus influenzae; Hemophilus influenzae R259, Table 9): 16 µg/mL (≈ 13 µM)
MIC (Hemophilus influenzae; Hemophilus influenzae R272, Table 9): 16 µg/mL (≈ 13 µM)
MIC (Hemophilus influenzae; Hemophilus influenzae R274, Table 9): 16 µg/mL (≈ 13 µM)
MIC (Hemophilus influenzae; Hemophilus influenzae S. Ford, Table 9): 16 µg/mL (≈ 13 µM)
MIC (Bacteroides corrodens): 64 µg/mL (≈ 51.9 µM)
MIC ([1]; B. thetaiotaomicron 1438, 24-hour, Table 12): 64 µg/mL (≈ 51.9 µM)
MIC ([1]; Bacteroides thetaiotaomicron 1438, Table 14): 64 µg/mL (≈ 51.9 µM)
MIC [2]: 8 µg/mL (≈ 6.49 µM)
MIC (Fusobacterium symbiosum): 1.0 µg/mL (≈ 0.811 µM)
ED50 (Staph. aureus): 1.4 mg/kg
MIC (Peptococcus prevoti [3]; Pc. prevoti 1281, Table 15): 0.5 µg/mL (≈ 0.405 µM)
MIC (Peptococcus prevoti [3]; Peptococcus prevoti 1281, Table 14): ≤ 0.25 µg/mL
solubility (solvents) (solubility): soluble in alcohol-water mixtures, in dimethylsulfoxide, in dimethylformamide, in dimethylsulfoxide-water mixtures, in dimethylformamide-water mixtures, in dilute aqueous acid, and in dilute aqueous base
MIC (Clostridium perfringens): 0.5 µg/mL (≈ 0.405 µM)
MIC (Peptococcus magnus): 0.5 µg/mL (≈ 0.405 µM)
MIC (Peptococcus constellatus): 0.5 µg/mL (≈ 0.405 µM)
MIC (Peptococcus prevoti [4]; Pc. prevoti 1293): 1.0 µg/mL (≈ 0.811 µM)
MIC (Peptococcus prevoti [4]; Pc. prevoti 1407): 1.0 µg/mL (≈ 0.811 µM)
MIC ([5]; Pc. asaccharolyticus 1302): ≤ 0.03 µg/mL
MIC ([5]; Pc. asaccharolyticus 1344): 0.5 µg/mL (≈ 0.405 µM)
MIC [6]: 4 µg/mL (≈ 3.24 µM)
MIC (Clostridium difficile; Clostridium difficile 78, Table 16): 1.0 µg/mL (≈ 0.811 µM)
MIC (Clostridium difficile; Clostridium difficile 107B, Table 16): 1.0 µg/mL (≈ 0.811 µM)
MIC (Clostridium difficile; Clostridium difficile 111F, Table 16): 1.0 µg/mL (≈ 0.811 µM)
MIC (Clostridium difficile; Clostridium difficile 1153, Table 16): 1.0 µg/mL (≈ 0.811 µM)
MIC (Clostridium difficile; Clostridium difficile 2634, Table 16): 1.0 µg/mL (≈ 0.811 µM)
MIC (Clostridium difficile; Clostridium difficile 2994, Table 14): 32 µg/mL (≈ 25.9 µM)
MIC (Clostridium difficile; Clostridium difficile 3424-5B, Table 16): 1.0 µg/mL (≈ 0.811 µM)
MIC (Clostridium difficile; Clostridium difficile 3816, Table 16): 1.0 µg/mL (≈ 0.811 µM)
MIC (Clostridium difficile; Clostridium difficile 3950D, Table 16): 1.0 µg/mL (≈ 0.811 µM)
MIC (Clostridium difficile; Clostridium difficile 6890, Table 16): 1.0 µg/mL (≈ 0.811 µM)
MIC (Clostridium difficile; Clostridium difficile 8484, Table 16): 1.0 µg/mL (≈ 0.811 µM)
MIC (Clostridium difficile; Clostridium difficile A-194, Table 16): 1.0 µg/mL (≈ 0.811 µM)
